Data as given in patent US20070191493A1, “Use of n-alkanols as activators of the cftr channel” (priority 2003, published 2007).
Like-named read-outs stand apart in the source and are kept apart here.

Key:
CHO-CFTR(-) cells = test: 125I iodide efflux in CHO-CFTR(-) control cells that do not express CFTR; type: cell-based, Chinese hamster; conditions: octan-1-ol 0.1 to 5 mM, FSK 5 μM, A23187 2 μM
CFTR channel [1] = target: T1, CFTR channel (Homo sapiens, UniProt P13569); test: 125I radioactive iodide efflux in CHO-CFTR(+) cells; type: cell-based; design: expressed in transfected cells; host or cells: CHO (Chinese hamster ovary) cells, CHO-CFTR(+)
Experimental: The cells are cultured in 24-well plates with a dilution to 1/10 after passage. […] The operation is repeated every 30 s for 2 to 6 min. […] All the samples are counted in a gamma counter (Kontron). The precipitated proteins are solubilized in 0.1N NaOH and quantified using a calorimetric test.
The tracer contained in the cell layer at the beginning of the efflux is calculated as the sum of the samples and of the extracts counted. The efflux curves are constructed by expressing the percentage of the content remaining in the cell layer (I %) with respect to time. The stimulated or nonstimulated efflux rate constants (k, min^−1) are determined by smoothing the efflux curves to a monoexponential function I %=100*exp(−kt) using a linear regression of the neperian logarithm of the data, k is used to calculate the iodide released into the medium with respect to time. The hypothesis is made that, in the presence of a stimulator, the efflux is the sum of two iodide effluxes occurring in parallel: a basal efflux and a stimulated efflux characterized, respectively, by the constants kb and ks. The total net efflux is then described by the equation It^%=100*(1−exp(−ktt)) where kt is the sum of kb and ks. Finally, ks calculated as kt−kb is used to establish a dose-response relationship for antagonists. The data is expressed as means ±SD, and the t-test is used to determine the significances. The concentration-response curves for agonists or for antagonists are smooth using the hyperbolic equation Y=Ymax*X/(EC5C+X), where Y is the response. Y begins at the basal level and progresses to the plateau (Ymax), X is the concentration and the half-effect values (EC are calculated using GraphPad Prism v3.0 (GraphPad software)).

CFTR channel [2] = target: T1, CFTR channel; test: whole-cell patch-clamp in CHO-CFTR(+) cells; type: cell-based; design: expressed in transfected cells; host or cells: CHO (Chinese hamster ovary) cells, CHO-CFTR(+)
From the text: The patch-clamp technique consists in applying a glass pipette or a glass microelectrode to the surface of the cell. By applying slight touch, it is possible to cause the membrane to adhere to the glass. A small piece of membrane (patch) is thus isolated at the end of the pipette. This is the principle of patch-clamp (O. P. Hamill et al., Pflügers Arch., 1981, 391, 85-100; R. Penner, A Practical Guide to Patch Clamping, 1995, In Single Channel Recording, 2nd edition (Eds. B. Sakmann et al.) Plenum Press, New York, 3-30). To do this, the patch-clamp pipette must have a tip of the order of 1 μm in diameter and a resistance of the order of 1-5 MΩ. The resistance of a pipette or of a microelectrode makes it possible to assess the fineness of the tip: the greater the resistance, the finer the tip or the more the electrode is blocked. […] Interactions between the membrane and the glass will form, aided by a slight suction or negative pressure in the pipette. The quality of this interaction (or sealing) is also assessed by measuring the resistance between the glass and the membrane. To measure overall currents in the whole cell configuration, a sealing resistance of 1 GΩ is sufficient.
More specifically, culture dishes (cell support) are placed in an experimentation cell (volume 1 ml) on the platform of an inverted microscope (Nikon) equipped with phase-contrast lighting. The whole-cell configuration is used for recording the cell currents (Hamill et al., 1981). The experiments are carried out at ambient temperature (20-22° C.). The currents are amplified with an Axopatch 200B amplifier (Axon Instrument Ltd) having a 2-5 kHz low-pass filter (Bessel 6-pole filter), and recorded on the hard disk of a PC after digitization at 10-25 kHz. The pipettes are produced from glass tubes 1 mm in diameter (Clark Electromedical Instrument) in four steps with a horizontal drawing device (Bruwn Flaming 97, CA).
The pipettes, filled with an intracellular solution containing, in mM: 60 KCl; 80 NMDG ([…]); 10 HEPES; 5 EGTA; 1 CaCl2; 4 MgATP; 0.2 Na3GTP; pH 7.4, titrated with KOH), having a resistance of 5 MΩ. The potentials are expressed as the difference between the potential of the patch electrode and that of the bath. In the whole-cell configuration, they represent the membrane potential of the cell. The junction potentials that form between the recording electrode and the extracellular medium are eliminated before the contact of the electrode with the cell. […] The current-voltage relationships in the stationary state are determined using slow voltage ramps (20 mV/.s) under an imposed voltage condition. […]

T1 sequence (P13569 whole entry): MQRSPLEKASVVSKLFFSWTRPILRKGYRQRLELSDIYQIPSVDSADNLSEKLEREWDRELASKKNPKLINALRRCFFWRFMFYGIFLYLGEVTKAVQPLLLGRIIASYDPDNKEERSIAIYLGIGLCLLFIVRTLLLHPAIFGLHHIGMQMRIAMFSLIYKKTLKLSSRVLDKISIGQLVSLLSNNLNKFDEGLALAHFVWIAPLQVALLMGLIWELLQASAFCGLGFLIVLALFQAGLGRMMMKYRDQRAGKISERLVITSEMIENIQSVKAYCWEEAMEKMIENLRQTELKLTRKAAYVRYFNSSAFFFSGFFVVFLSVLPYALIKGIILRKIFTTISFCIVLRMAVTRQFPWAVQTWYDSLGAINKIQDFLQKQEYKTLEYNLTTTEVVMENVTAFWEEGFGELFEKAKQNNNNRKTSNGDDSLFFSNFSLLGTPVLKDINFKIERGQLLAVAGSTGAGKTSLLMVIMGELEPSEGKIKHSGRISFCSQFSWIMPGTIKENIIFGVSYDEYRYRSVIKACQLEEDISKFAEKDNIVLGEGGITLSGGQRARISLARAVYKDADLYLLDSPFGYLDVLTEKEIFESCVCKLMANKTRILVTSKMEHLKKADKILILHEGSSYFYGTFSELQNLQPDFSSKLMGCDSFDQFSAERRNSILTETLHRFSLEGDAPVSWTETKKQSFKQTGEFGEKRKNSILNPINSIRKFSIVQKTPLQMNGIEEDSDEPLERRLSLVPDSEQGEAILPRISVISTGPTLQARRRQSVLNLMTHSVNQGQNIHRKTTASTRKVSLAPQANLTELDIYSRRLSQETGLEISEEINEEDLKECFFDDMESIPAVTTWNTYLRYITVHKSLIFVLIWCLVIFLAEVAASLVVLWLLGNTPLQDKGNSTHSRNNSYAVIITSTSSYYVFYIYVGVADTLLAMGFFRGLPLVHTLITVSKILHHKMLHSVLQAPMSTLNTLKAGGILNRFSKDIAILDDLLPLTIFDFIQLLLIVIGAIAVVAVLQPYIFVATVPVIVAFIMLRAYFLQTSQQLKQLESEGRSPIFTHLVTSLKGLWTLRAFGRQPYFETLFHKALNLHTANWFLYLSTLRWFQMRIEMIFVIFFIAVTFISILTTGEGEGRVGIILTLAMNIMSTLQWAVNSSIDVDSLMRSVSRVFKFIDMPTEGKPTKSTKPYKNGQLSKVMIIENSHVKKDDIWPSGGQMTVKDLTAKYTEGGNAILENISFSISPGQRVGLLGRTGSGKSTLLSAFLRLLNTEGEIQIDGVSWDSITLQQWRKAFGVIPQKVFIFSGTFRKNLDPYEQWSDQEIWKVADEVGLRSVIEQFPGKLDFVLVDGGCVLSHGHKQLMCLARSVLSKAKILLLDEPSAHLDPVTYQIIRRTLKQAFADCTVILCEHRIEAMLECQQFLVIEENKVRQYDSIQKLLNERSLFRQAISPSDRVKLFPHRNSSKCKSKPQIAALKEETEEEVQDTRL

In the case of CCCCCCCCO [octan-1-ol], the “effect on basal level of 125I efflux in cells not expressing CFTR” value (CHO-CFTR(-) cells) is reported as “do not significantly modify the basal level”, the “order of activation of CFTR by n-alkanols” value (CFTR channel [1]; 1 mM, 125I efflux or patch-clamp) is reported as “hexan-1-ol<heptan-1-ol<octan-1-ol<octan-2-ol<decan-1-ol” and the “concentration at which plateau of CFTR activation is reached” value (CFTR channel [1]; CHO-CFTR(+) cells) is reported as 1 mM. For the same compound, the “activation of CFTR (125I efflux), in words” value (CFTR channel [1]; CHO-CFTR(+) cells, n-alkanols 1 mM, FSK 1 μM, A23187 2 μM, α-GA 10 and 100 μM) was “increase in activation of CFTR”, the EC50 (CFTR channel [1]; CHO-CFTR(+) cells, read-out: half-activation dose) was 500 µM and the EC50 (CFTR channel [1]; EC50 of activation of CFTR (125I efflux rate constant), CHO-CFTR(+) cells, octan-1-ol 0.1 to 5 mM) was roughly 500 µM. For the same compound, the “activation of the CFTR channel by patch-clamp, in words” value (CFTR channel [2]; octan-1-ol alone 1 mM, without FSK) was “full activation”, the “reversion potential of the induced current” value (CFTR channel [2]; whole-cell, FSK- or octan-1-ol-induced current) was 1±0.6 mV and the “increase in membrane conductance compared with the control” value (CFTR channel [2]; whole-cell, FSK 1 μM, octan-1-ol 1 mM) was “approximately 10 fold”.
